Literature values as cited in patent US11591275B2, “Smart release potash fertilizer granules” (RYNAN TECHNOLOGIES PTE LTD, priority 2018, dated 2023).

Settings: for pKa: of the organic acid in the extended release layer

SMILES	pKa* of associated acids (acid associated with the anion pendant group of the anti-caking copolymer)	pKa
O=C(O)Cc1cccc2ccccc12 [1-Naphthalene Acetic Acid, 1-Naphthalene acetic acid]	4.23	4.23
O=C(O)C(=O)O [Oxalic Acid]		4.10
